# Data published in paper PMC11060137, “A Phase I Study of KIN-3248, an Irreversible Small-molecule Pan-FGFR Inhibitor, in Patients with Advanced FGFR2/3-driven Solid Tumors” (Cancer Research Communications, 2024).
# Like-named read-outs stand apart in the source and are kept apart here.
# Legend:
# [1] = system: patients with advanced solid tumors harboring FGFR2 and/or FGFR3 gene alterations
# Method: The study was divided into two parts. […] The secondary objectives included antitumor activity in Part A, determination of pharmacokinetics and pharmacodynamics.
# Dose level 1 was started at 5 mg oral daily, and patients were escalated on study to 50 mg daily. On the basis of ongoing efficacy, toxicity, and pharmacokinetic analysis, a planned amendment added additional cohorts up to 80 mg orally daily to define the MTD/RP2D. […] One cycle was 28 days of continuous dosing. Intrapatient dose escalation after safely tolerating two cycles was allowed if per protocol criteria were met. Patients continued therapy until evidence of disease progression, intolerance or unacceptable toxicity, withdrawal of consent, investigator decision, sponsor decision, or death.
# Patients were evaluated with medical history, physical examinations, and clinical laboratory on days 1, 8, 15, and 22 of cycle 1; days 1 and 15 from cycle 2 through cycle 5; and day 1 of each subsequent cycle. […] Except for hyperphosphatemia, adverse events (AE) were graded according to the NCI-CTCAE (Common Terminology Criteria for Adverse Events) Version 5.0 at each study visit and for approximately 30 days following end of treatment.
# The primary endpoints for the overall study, included: the incidence of DLTs, incidence of AEs, treatment-emergent AEs (TEAE), and treatment-related AEs (TRAE).
# [2] = system: molecular break (N549H) resistance mutation; design: method as in PMID 38267212; settings: cited from earlier work
# wild-type FGFR = system: wild-type FGFR; design: method as in PMID 38267212; settings: cited from earlier work
# [3] = system: advanced solid tumors harboring FGFR2 and/or FGFR3 gene alterations; test: Antitumor activity by RECIST v1.1; format: in vivo, human
# ctDNA = ctDNA molecular response (change in mean VAF, PredicineATLAS); format: in vivo, human; settings: after 1 cycle; 26 patients evaluable for RECIST and ctDNA response
# From the text: Whole blood was collected into Streck Cell Free BCT DNA tubes on cycle 1 day 1 and cycle 2 day 1. Samples were processed to extract plasma followed by cell-free DNA isolation, which was then interrogated by PredicineATLAS, a 600 gene assay able to detect SNVs, indels, rearrangements, fusions, and copy-number gains, as described previously ([19]).
# For each patient with available paired ctDNA, the change in ctDNA after one cycle of treatment was summarized by calculating the mean variant allele frequency (VAF) of all somatic mutations at each timepoint and then taking the ratio as follows: [(mean VAF^C2D1/mean VAF^C1D1) −1]*100 ([20]). For somatic mutations detected in only one sample of a patient-matched pair, the VAF was imputed to be zero for calculation purposes, when the mutation was not detected. Change in match pair ctDNA was correlated both categorically with RECIST v 1.1 response and continuously (Pearson R) with the best % change in target lesions. Biomarker analyses were conducted using R [R Core Team 2023 ([21])].
smiles,measurement,setting,value
C=CC(=O)N1C[C@@H](n2nc(C#Cc3c(F)cc4c(ncn4C4CC4)c3F)c(C(N)=O)c2NC)C[C@@H]1COC [KIN-3248],"TEAE Gastrointestinal disorders, n (%)","[1]; CTCAE (V5) Grade 3, N = 54",5 (9.3%)
same,"TEAE General disorders and administration site conditions, n (%)","[1]; CTCAE (V5) Grade 3, N = 54",0
same,"TEAE Hypercalcemia, n (%)","[1]; CTCAE (V5) Grade 3, N = 54",1 (1.9%)
same,"TEAE Hyperphosphatemia, n (%)","[1]; CTCAE (V5) Grade 3, N = 54",8 (14.8%)
same,"TEAE Infections and infestations, n (%)","[1]; CTCAE (V5) Grade 3, N = 54",4 (7.4%)
same,"TEAE Investigations, n (%)","[1]; CTCAE (V5) Grade 3, N = 54",2 (3.7%)
same,"TEAE Metabolism and nutrition disorders, n (%)","[1]; CTCAE (V5) Grade 3, N = 54",10 (18.5%)
same,"TEAE Musculoskeletal and connective tissue disorders, n (%)","[1]; CTCAE (V5) Grade 3, N = 54",1 (1.9%)
same,"TEAE Nausea, n (%)","[1]; CTCAE (V5) Grade 3, N = 54",0
same,"TEAE Nervous system disorders, n (%)","[1]; CTCAE (V5) Grade 3, N = 54",2 (3.7%)
same,"TEAE Psychiatric disorders, n (%)","[1]; CTCAE (V5) Grade 3, N = 54",0
same,"TEAE Respiratory, thoracic, and mediastinal disorders, n (%)","[1]; CTCAE (V5) Grade 3, N = 54",1 (1.9%)
same,"TEAE Skin and subcutaneous tissue disorders, n (%)","[1]; CTCAE (V5) Grade 3, N = 54",0
same,"TEAE Stomatitis, n (%)","[1]; CTCAE (V5) Grade 3, N = 54",0
same,"TEAE Vascular disorders, n (%)","[1]; CTCAE (V5) Grade 3, N = 54",3 (5.6%)
same,"Patient with any TEAE, n (%)","[1]; CTCAE (V5) Grade 4–5, N = 54",7 (13.0%)
same,"TEAE Alanine aminotransferase increased, n (%)","[1]; CTCAE (V5) Grade 4–5, N = 54",0
same,"TEAE Anemia, n (%)","[1]; CTCAE (V5) Grade 4–5, N = 54",0
same,"TEAE Aspartate aminotransferase increased, n (%)","[1]; CTCAE (V5) Grade 4–5, N = 54",0
same,"TEAE Blood and lymphatic system disorders, n (%)","[1]; CTCAE (V5) Grade 4–5, N = 54",0
same,"TEAE Blood creatinine increased, n (%)","[1]; CTCAE (V5) Grade 4–5, N = 54",0
same,"TEAE Constipation, n (%)","[1]; CTCAE (V5) Grade 4–5, N = 54",0
same,"TEAE Decreased appetite, n (%)","[1]; CTCAE (V5) Grade 4–5, N = 54",0
same,"TEAE Diarrhea, n (%)","[1]; CTCAE (V5) Grade 4–5, N = 54",0
same,"TEAE Dry mouth, n (%)","[1]; CTCAE (V5) Grade 4–5, N = 54",0
same,"TEAE Eye disorders, n (%)","[1]; CTCAE (V5) Grade 4–5, N = 54",0
same,"TEAE Fatigue, n (%)","[1]; CTCAE (V5) Grade 4–5, N = 54",0
same,"TEAE Gastrointestinal disorders, n (%)","[1]; CTCAE (V5) Grade 4–5, N = 54",0
same,"TEAE General disorders and administration site conditions, n (%)","[1]; CTCAE (V5) Grade 4–5, N = 54",1 (1.9%)
same,"TEAE Hypercalcemia, n (%)","[1]; CTCAE (V5) Grade 4–5, N = 54",0
same,"TEAE Hyperphosphatemia, n (%)","[1]; CTCAE (V5) Grade 4–5, N = 54",0
same,"TEAE Infections and infestations, n (%)","[1]; CTCAE (V5) Grade 4–5, N = 54",2 (3.7%)
same,"TEAE Investigations, n (%)","[1]; CTCAE (V5) Grade 4–5, N = 54",2 (3.7%)
same,"TEAE Metabolism and nutrition disorders, n (%)","[1]; CTCAE (V5) Grade 4–5, N = 54",0
same,"TEAE Musculoskeletal and connective tissue disorders, n (%)","[1]; CTCAE (V5) Grade 4–5, N = 54",0
same,"TEAE Nausea, n (%)","[1]; CTCAE (V5) Grade 4–5, N = 54",0
same,"TEAE Nervous system disorders, n (%)","[1]; CTCAE (V5) Grade 4–5, N = 54",1 (1.9%)
same,"TEAE Psychiatric disorders, n (%)","[1]; CTCAE (V5) Grade 4–5, N = 54",0
same,"TEAE Respiratory, thoracic, and mediastinal disorders, n (%)","[1]; CTCAE (V5) Grade 4–5, N = 54",1 (1.9%)
same,"TEAE Skin and subcutaneous tissue disorders, n (%)","[1]; CTCAE (V5) Grade 4–5, N = 54",0
same,"TEAE Stomatitis, n (%)","[1]; CTCAE (V5) Grade 4–5, N = 54",0
same,"TEAE Vascular disorders, n (%)","[1]; CTCAE (V5) Grade 4–5, N = 54",0
same,MTD,[1]; doses up to 50 mg orally daily,not reached
same,Treatment-related deaths,[1]; in vivo,no treatment-related deaths
same,Treatment-related grade 3 hyperphosphatasemia,[1]; only event reported in more than 1 patient,14.8%
same,TEAE deaths,"[1]; three related to progressive disease, one to a cardiovascular accident",Four
same,IC50,[2],low nanomolar
same,IC50,wild-type FGFR,low nanomolar
same,Best response in pretreated ICC patients with FGFR2 kinase domain resistance mutations,[3]; 3 patients,progressive disease
same,Response in FGFR2/3 fusion patients,[3]; 5 patients,20%
same,ORR,[3]; 54 patients,9.25%
same,Responders among FGFR inhibitor pretreated patients with acquired FGFR resistance mutations in ctDNA,"[3]; of 4 patients, gastric cancer",1
same,Confirmed responders among FGFR inhibitor experienced patients,[3]; of 23 patients,1
same,Confirmed responders among FGFR inhibitor naïve patients,[3]; of 31 patients,3
same,Responders among FGFR inhibitor naïve patients,[3]; of 31 patients,4
same,Patients achieving CR,[3]; of 54 patients enrolled,none
same,Patients achieving PR,[3]; of 54 patients enrolled,5
same,DCR,[3]; total population,46%
same,Patients achieving SD,[3]; twenty patients,37.0%
same,Patients with greater than 50% decrease in mean VAF,ctDNA,Six
